Data on 60 compounds can be found in US9862730B2, “Imidazothiadiazole derivatives as protease activated receptor 4 (PAR4) inhibitors for treating platelet aggregation” (BRISTOL-MYERS SQUIBB COMPANY, priority 2012, dated 2018).

pIC50: −log10 of the molar value.

By pIC50 is commonly meant the negative decadic logarithm of the IC50, by convention in mol/L.

Chain of PAR4 (Q96RI0 18-385): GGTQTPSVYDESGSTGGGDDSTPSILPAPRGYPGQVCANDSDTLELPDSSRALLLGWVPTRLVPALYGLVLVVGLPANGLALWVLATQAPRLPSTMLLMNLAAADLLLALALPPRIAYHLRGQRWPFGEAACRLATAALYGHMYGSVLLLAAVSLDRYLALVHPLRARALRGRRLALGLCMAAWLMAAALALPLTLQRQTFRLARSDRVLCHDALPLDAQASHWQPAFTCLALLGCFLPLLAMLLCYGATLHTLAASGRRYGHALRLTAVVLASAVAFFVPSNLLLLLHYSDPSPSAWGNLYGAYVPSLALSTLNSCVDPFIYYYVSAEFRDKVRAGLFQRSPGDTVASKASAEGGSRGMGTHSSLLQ

The test deals with PAR4 (Homo sapiens (Human), UniProt Q96RI0). The experiment in a line: FLIPR assay in PAR4-expressing HEK293 cells (PAR4 antagonist activity, calcium mobilization). The note with it: FLIPR assay as described in Example A. In kind it is cell-based. The essentials:
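HEK293 cells stably expressing human PAR4 (also endogenous PAR1) in HBSS/10 mM HEPES, 0.67% DMSO final. Compound added and read for agonist activity, then 30 min room temperature before PAR4 agonist peptide; intracellular calcium mobilization monitored by FDSS/FLIPR.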
On the technique in general: A change in cytosolic calcium serves as a functional read-out for many receptors and channels.
As to `COc1nn2cc(-c3cc4ccc(O)cc4o3)nc2s1` [Example 108], the pIC50 is 6.34. Take `COc1ccc2c(C)c(-c3cn4nc(SC)sc4n3)oc2c1OC` [Example 25]: the pIC50 is 8.55.

As for `COc1cc(OCc2ccccc2)c2cc(-c3cn4nc(C(C)(F)F)sc4n3)oc2c1` [Example 265], the pIC50 is 7.55. Take `COc1cc(OCc2cccc(OCc3ccc(C(C)C)cc3)c2)c2cc(-c3cn4nc(OC)sc4n3)oc2c1` [Example 313]: the pIC50 is 8.68. Regarding `COc1cc2oc(-c3cn4nc(C(C)F)sc4n3)cc2cc1Cl` (stereo in doubt) [270A], the negative-log IC50 (pIC50) is 6.94. As for `Cc1cc2oc(-c3cn4nc(Br)sc4n3)cc2cc1Cl` [Example 277], the figure is 6.29; as for `COc1cc(Cl)cc(COc2cccc(COc3cc(OC)cc4oc(-c5cn6nc(OC)sc6n5)cc34)c2)c1` [Example 401], 8.89; as for `COc1cc(OCc2cccc(OCc3ccc(OCc4ccccc4)cc3)c2)c2cc(-c3cn4nc(OC)sc4n3)oc2c1` [Example 366], 6.78.

For the compound `CCOc1cc(OC)cc2oc(-c3cn4nc(Br)sc4n3)cc12` [Example 267], the negative-log IC50 (pIC50) is 8.12. As to `COc1cc(OCc2cccc(OCc3cc(F)cc(OCc4ccccc4)c3)c2)c2cc(-c3cn4nc(OC)sc4n3)oc2c1` [Example 395], the pIC50 is 7.42. As for `CC(F)c1nn2cc(-c3nc4ccccc4s3)nc2s1` (stereo not drawn) [Example 186, 2-(2-(1-Fluoroethyl)imidazo[2,1-b][1,3,4]thiadiazol-6-yl)benzo[d]thiazole], the figure is 6.60; as for `CSc1nn2cc(-c3nc4ccc(OCCN5CCCC5)cc4o3)nc2s1` [Example 114, 2-(2-(Methylthio)imidazo[2,1-b][1,3,4]thiadiazol-6-yl)-6-(2-(pyrrolidin-1-yl)ethoxy)benzo[d]oxazole], 6.69; as for `COc1cc(OCc2cccc(OCc3ccccc3OC(F)(F)F)c2)c2cc(-c3cn4nc(OC)sc4n3)oc2c1` [Example 322], 8.00. Take `COc1cc2oc(-c3cn4nc(C(C)(F)F)sc4n3)cc2cc1Cl` [Example 239]: the pIC50 is 8.14. Turning to `CCCCOc1cccc2cc(-c3cn4nc(CC)sc4n3)oc12` [Example 64], the negative-log IC50 (pIC50) was 5.80.

`COc1cc(OCc2cccc(OCc3ccccc3)c2)c2oc(-c3cn4nc(OC)sc4n3)cc2c1` [Example 409, 6-(7-((3-(Benzyloxy)benzyl)oxy)-5-methoxybenzofuran-2-yl)-2-methoxyimidazo[2,1-b][1,3,4]thiadiazole]: the negative logarithm of the IC50 (pIC50) is 5.43. For the compound `CSc1nn2cc(-c3cc4c(OCC#N)cccc4o3)nc2s1` [Example 248], the pIC50 is 6.84.

As to `CSc1nn2cc(-c3nc4c(OC[C@H]5CCCN5C(=O)[C@H](NC(=O)c5ccccc5)c5ccccc5)cccc4o3)nc2s1` [Example 335, N—((R)-2-((R)-2-(((2-(2-(Methylthio)imidazo[2,1-b][1,3,4]thiadiazol-6-yl)benzo[d]oxazol-4-yl)oxy)methyl)pyrrolidin-1-yl)-2-oxo-1-phenylethyl)benzamide], the pIC50 is 6.27. Take `COc1cc(OCc2cccc(OCc3ccc(F)cc3Cl)c2)c2cc(-c3cn4nc(OC)sc4n3)oc2c1` [Example 369]: the negative-log IC50 (pIC50) is 8.53. With `COc1nn2cc(-c3nc4cc(F)ccc4s3)nc2s1` [Example 194], the pIC50 is 8.02. Take `CSc1nn2cc(-c3nc4c(OCc5ccccn5)cccc4o3)nc2s1` [Example 166]: the pIC50 is 6.86. Consider `COc1cc(OC)c2nc(-c3cn4nc(SC)sc4n3)sc2c1` [Example 189], for which the pIC50 is 5.66. Consider `CSc1nn2cc(-c3cc4c(OCc5cccc(OCc6ccccc6)c5)cc(OS(=O)(=O)C(F)(F)F)cc4o3)nc2s1` [Example 420], for which the pIC50 was 7.29. For `CC(F)(F)c1nn2cc(-c3cc4c(OCc5ccccc5)cccc4o3)nc2s1` [Example 250], the pIC50 is 6.57.

With `COc1cc(OCc2cccc(OCc3ccc(Cl)c(Cl)c3)c2)c2cc(-c3cn4nc(OC)sc4n3)oc2c1` [Example 365], the pIC50 was 8.49.

For `COc1cc(OC(C)C)c2cc(-c3cn4nc(SC)sc4n3)oc2c1` [Example 298], the pIC50 was 7.73.

Consider `CSc1nn2cc(-c3cc4cccc(Cl)c4o3)nc2s1` [Example 23], for which the pIC50 is 6.84.

In the case of `Fc1ccc2nc(-c3cn4nc(Br)sc4n3)sc2c1` [Example 183, 2-(2-bromoimidazo[2,1-b][1,3,4]thiadiazol-6-yl)-6-fluorobenzo[d]thiazole], the pIC50 is 6.38.

Regarding `COc1cc(OCc2ccc(OC)c(OCc3ccccc3)c2)c2cc(-c3cn4nc(OC)sc4n3)oc2c1` [Example 351], the pIC50 is 8.65.

Consider `COc1cc(OCc2cccc(OCc3ccc(OC)c(OC)c3Cl)c2)c2cc(-c3cn4nc(OC)sc4n3)oc2c1` [Example 361], for which the negative-log IC50 (pIC50) is 8.87. In the case of `COc1ccc2oc(-c3cn4nc(OC)sc4n3)nc2c1` [Example 142] it was 7.56; in that of `COc1nn2cc(-c3cc4cccc(F)c4o3)nc2s1` [Example 263], 7.68.

As for `CCc1nn2cc(-c3nc4ccc(OCC5CCCCC5)cc4o3)nc2s1` [Example 76], the pIC50 is 5.47. In the case of `CSc1nn2cc(-c3nc4c(Cl)cccc4s3)nc2s1` [Example 187] it was 6.11; in that of `COc1cc2oc(-c3cn4nc([C@H](C)F)sc4n3)cc2cc1Cl` [270B], 8.47.

As for `CSc1nn2cc(-c3nc4c(OC[C@H]5CCCN5C(=O)[C@H](NC(=O)c5cccs5)c5ccccc5)cccc4o3)nc2s1` [Example 336, N—((R)-2-((R)-2-(((2-(2-(Methylthio)imidazo[2,1-b][1,3,4]thiadiazol-6-yl)benzo[d]oxazol-4-yl)oxy)methyl)pyrrolidin-1-yl)-2-oxo-1-phenylethyl)thiophene-2-carboxamide], the pIC50 is 6.05. On to `COc1cc(O)c2cc(-c3cn4nc(OC)sc4n3)oc2c1` [Example 204, 6-Methoxy-2-(2-methoxyimidazo[2,1-b][1,3,4]thiadiazol-6-yl)benzofuran-4-ol], for which the pIC50 was 6.77. As for `COc1cc2oc(-c3cn4nc(Br)sc4n3)cc2cc1Br` [Example 275], the figure is 7.64; as for `COc1nn2cc(-c3cc4c(OCc5cccc(OCc6ccccc6)c5)cc(OC(F)F)cc4o3)nc2s1` [Example 416, 6-(4-((3-(Benzyloxy)benzyl)oxy)-6-(difluoromethoxy)benzofuran-2-yl)-2-methoxyimidazo[2,1-b][1,3,4]thiadiazole], 8.96.

`COc1nn2cc(-c3cc4c(OCc5cccc(OCc6ccccc6)c5)cc(O)cc4o3)nc2s1` [Example 410, 4-((3-(Benzyloxy)benzyl)oxy)-2-(2-methoxyimidazo[2,1-b][1,3,4]thiadiazol-6-yl)benzofuran-6-ol]: the pIC50 was 8.11. With `COc1cc(OC(C)C)c2cc(-c3cn4nc(Br)sc4n3)oc2c1` [Example 299], the pIC50 was 7.10. With `COCOc1cccc2oc(-c3cn4nc(SC)sc4n3)nc12` [Example 163], the pIC50 is 7.40.

With `COc1cc(OCc2ccc(C)c(OCc3ccccc3)c2)c2cc(-c3cn4nc(OC)sc4n3)oc2c1` [Example 352], the pIC50 is 8.44. As to `COc1ccc(OC)c2oc(-c3cn4nc(SC)sc4n3)cc12` [Example 105], the pIC50 is 7.94. As to `CSc1nn2cc(-c3cc4c(Cl)nccc4o3)nc2s1` [Example 221, 4-Chloro-2-(2-(methylthio)imidazo[2,1-b][1,3,4]thiadiazol-6-yl)furo[3,2-c]pyridine], the pIC50 was 7.90.

Take `Cc1ccc2cc(-c3cn4nc(C(C)(F)F)sc4n3)oc2c1` [Example 233]: the pIC50 is 7.80. In the case of `CSc1nn2cc(-c3nc4ccc(OCc5ccc(C(F)(F)F)cc5)cc4o3)nc2s1` [Example 153] it was 6.46; in that of `COc1cc(OC[C@H]2CCCN2C(=O)c2ccc(F)cc2)c2cc(-c3cn4nc(OC)sc4n3)oc2c1` [Example 341], 7.66. For `COc1cc(OCc2cccc(OCc3cc(Br)ccc3OC)c2)c2cc(-c3cn4nc(OC)sc4n3)oc2c1` [Example 367], the negative-log IC50 (pIC50) is 8.39. Turning to `CSc1nn2cc(-c3cc4c(O)cccc4o3)nc2s1` [Example 214, 2-(2-(Methylthio)imidazo[2,1-b][1,3,4]thiadiazol-6-yl)benzofuran-4-ol], the pIC50 is 6.49. Regarding `COc1cc(OCc2cccc(OCc3c(C)cc(C)cc3C)c2)c2cc(-c3cn4nc(OC)sc4n3)oc2c1` [Example 377], the pIC50 was 8.16. Turning to `CSc1nn2cc(-c3cc4c(F)cccc4o3)nc2s1` [Example 262], the negative-log IC50 (pIC50) was 8.37. Consider `CC(F)(F)c1nn2cc(-c3cc4ccccc4o3)nc2s1` [Example 207, 6-(Benzofuran-2-yl)-2-(1,1-difluoroethyl)imidazo[2,1-b][1,3,4]thiadiazole], for which the pIC50 is 6.89.

For the compound `CSc1nn2cc(-c3nc4cc(C)ccc4o3)nc2s1` [Example 113], the negative logarithm of the IC50 (pIC50) was 7.82. Regarding `Cc1cc2nc(-c3cn4nc(C(C)(F)F)sc4n3)oc2cc1C` [Example 179], the pIC50 is 6.65. On to `COc1cc(OCc2cccc(OCc3cc(F)c(F)c(F)c3)c2)c2cc(-c3cn4nc(OC)sc4n3)oc2c1` [Example 328], for which the negative logarithm of the IC50 (pIC50) is 8.35. For the compound `COc1ccc2cc(-c3cn4nc(C(C)(F)F)sc4n3)oc2c1` [Example 271], the pIC50 is 7.71. Take `COc1nn2cc(-c3nc4cc(C(C)(C)C)ccc4o3)nc2s1` [Example 134]: the pIC50 was 6.49.

In the case of `COc1cc(OCc2cccc(OCc3cc(C(F)(F)F)ccc3F)c2)c2cc(-c3cn4nc(OC)sc4n3)oc2c1` [Example 321], the pIC50 is 8.17. With `CCOc1cc(OCc2cccc(OCc3ccccc3)c2)c2cc(-c3cn4nc(SC)sc4n3)oc2c1` [Example 423], the pIC50 was 7.82.
